The supplement of paper PMC10307832

Tests used:
Assay in all cases: relative viability (nuclei count vs DMSO), 5 days (fraction); higher = more cells survive
[1] = compound: CC1=CC(=NN1)NC2=CC(=NC(=N2)/C=C/C3=CC=CC=C3)N4CCN(CC4)C + CC(=O)c1c(C)c2cnc(Nc3ccc(N4CCNCC4)cn3)nc2n(C2CCCC2)c1=O [Palbociclib] (partner 0.5 µM)
In short: (§1)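 Values are medians from duplicate plates. Each reflects relative viability, defined as the nuclei count of treated wells over that of vehicle wells. Lung cancer cell lines in 1536-well plates were pin-tool dosed one day after seeding with one drug alone or with a fixed anchor-drug dose plus five library-drug doses (not always all listed) in √10 steps, then fixed, stained and imaged at 4× after 5 days.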

[2] = compound: CC1=CC(=NN1)NC2=CC(=NC(=N2)/C=C/C3=CC=CC=C3)N4CCN(CC4)C + O=C(CCCCCCC(=O)Nc1ccccc1)NO [Vorinostat] (partner 1 µM)
In short: as §1

[3] = compound: CC(C)C[C@H](NC(=O)[C@H](Cc1ccccc1)NC(=O)c1cnccn1)B(O)O [Bortezomib] + O=C(CCCCCCC(=O)Nc1ccccc1)NO [Vorinostat] (partner 1 µM)
In short: as §1

[4] = compound: CC(C)C[C@H](NC(=O)[C@H](Cc1ccccc1)NC(=O)c1cnccn1)B(O)O [Bortezomib] + N=C(N)NC(=N)NCCc1ccccc1 [Phenformin] (partner 250 µM)
In short: as §1

With NCI-H650 the relative viability ([1]; first compound 0.08 µM) was 0.288, the relative viability ([1]; first compound 0.253 µM) was 0.321 and the relative viability ([1]; first compound 0.8 µM) was 0.339. For the same cell line, the relative viability ([1]; first compound 2.53 µM) was 0.294, the relative viability ([1]; first compound 8 µM) was 0.177 and the relative viability ([2]; first compound 0.08 µM) was 0.412. For the same cell line, the relative viability ([2]; first compound 0.253 µM) was 0.717, the relative viability ([2]; first compound 0.8 µM) was 0.495 and the relative viability ([2]; first compound 2.53 µM) was 0.409. The relative viability ([2]; first compound 8 µM) was 0.174, the relative viability ([3]; first compound 0.0002 µM) was 0.395 and the relative viability ([3]; first compound 0.000632 µM) was 0.566. It also gave a relative viability ([3]; first compound 0.002 µM) of 0.452, a relative viability ([3]; first compound 0.006325 µM) of 0.429 and a relative viability ([3]; first compound 0.02 µM) of 0.121. It also gave a relative viability ([4]; first compound 0.000632 µM) of 0.431, a relative viability ([4]; first compound 0.002 µM) of 0.461 and a relative viability ([4]; first compound 0.006325 µM) of 0.38. It also gave a relative viability ([4]; first compound 0.02 µM) of 0.203.
